Source: US11993594B2, “IRAK inhibitors and method for making and using” (Rigel Pharmaceuticals, Inc., priority 2016, dated 2024)
Where a name gives a salt, the structure may show the parent alone. Read-outs that look alike come from different tables or passages of the source.

Legend:
[1] = system: LPS Induced IL23p19 in THP-1 Cells; experiment: LPS Induced IL23p19 in THP-1 Cells (with IFNγ Primed) Assay; type: cell-based, human; settings: THP-1 cells primed with IFNγ 50 ng/mL, LPS 1 ug/mL, 18 hours, 10 pt, read-out: IL23-p19 ELISA, THP1-IFNγ, LPS, 10 pt EC50
In short: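 THP-1 cells (50K/well) are primed with IFNγ at 50 ng/mL for about 18 h. They are then pre-treated with compound for 1 h and stimulated with LPS at 1 ug/mL final for 18 h at 37 °C. Secreted IL-23p19 is measured by chemiluminescent sandwich ELISA and EC50 is derived by curve fitting, with Cell Titer Glo as a viability counter-screen.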

[2] = system: LPS induced IL-23 (p19/p40) in DC cells; experiment: IL23-p19 ELISA, dendritic (DC) cells differentiated from human PBMC, LPS stimulated; type: cell-based; settings: LPS 1 μg/ml, 18 hours, 10 pt
In short: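 Human PBMC-derived dendritic cells (7 days GM-CSF 100 ng/ml plus IL-4 20 ng/ml, then primed 24 h with IFNγ 50 ng/ml) pre-incubated 1 h with compound, then stimulated 18 h at 37 °C with LPS 1 μg/ml. Supernatant IL-23 measured by sandwich chemiluminescent ELISA (anti-p19 capture, anti-p40 detection); cytotoxicity by CellTiter-Glo.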

EC50 ([1]; Homo sapiens, Table 1) | EC50 ([2]; Table 1, IFNγ 50 ng/ml) | EC50 ([1]; Table 3) | EC50 ([2]; Table 3, IFNγ 50 ng/ml) | Compound
78 nM | 46.5 nM | – | – | O=C(Nc1cn(C2CCC(N3CCOCC3)CC2)nc1-c1cnccn1)c1coc(-c2c[nH]nc2F)n1 (stereo not drawn) [Compound I-35, 2-(3-fluoro-1H-pyrazol-4-yl)-N-(1-((1r,4r)-4-morpholinocyclohexyl)-3-(pyrazin-2-yl)-1H-pyrazol-4-yl)oxazole-4-carboxamide formic acid salt]
2.6 nM | 39.9 nM | – | – | O=C(Nc1cn([C@H]2C[C@@H](O)C2)nc1-c1cnccn1)c1coc(-c2cn[nH]c2)n1 [Compound I-38, N-(1-((1s,3s)-3-hydroxycyclobutyl)-3-(pyrazin-2-yl)-1H-pyrazol-4-yl)-2-(1H-pyrazol-4-yl)oxazole-4-carboxamide]
– | – | 238 nM | 217 nM | N-(1-(2-(2-methoxyethoxy)ethyl)-3-(pyridin-2-yl)-1H-pyrazol-4-yl)-2-(1H-pyrazol-4-yl)oxazole-4-carboxamide [Compound I-24]
